Source: US6486157B1, “Use of insecticides in pest control” (priority 1998, dated 2002)

Experiments:
Format in all cases: in vivo
[1] = tested on: Anthonomus grandis; assay: Spray test on young transgenic cotton plants, action against Anthonomus grandis adults; details: for control of the tested insects in the non-transgenic plant (% action): non-transgenic cotton, spray mixture of active ingredient and conventional CryIIIA-toxin, each 100, 50, 10, 5, 1 ppm, 3 to 10 days; for control of the tested insects in the transgenic plant (% action): spray 100, 50, 10, 5, 1 ppm, evaluation 3 to 10 days, compared with treated non-transgenic cotton
Description: (§1) Young transgenic cotton plants which express the δ-endotoxin CryIIIA are sprayed with an aqueous emulsion spray mixture comprising 100, 50, 10, 5, 1 ppm of profenofos respectively. After the spray coating has dried on, the cotton plants are populated with 10 adult Anthonomus grandis, 10 Spodoptera littora larvae or 10 Heliothis virescens larvae respectively and introduced into a plastic container. Evaluation takes place 3 to 10 days later. The percentage reduction in population, or the percentage reduction in feeding damage (% action), is determined by comparing the number of dead beetles and the feeding damage on the transgenic cotton plants with that of non-transgenic cotton plants which have been treated with an emulsion spray mixture comprising lufenuron and conventional CryIIIA-toxin at a concentration of in each case 100, 50, 10, 5, 1 ppm respectively.
as §1, with “pymetrozine” for “lufenuron”
as §1, with “express tho” for “express the”, “δ-endotoxin CryIa (c)” for “δ-endotoxin CryIIIA”, “of fenoxycarb” for “of profenofos”, “comprising fenoxycarb” for “comprising lufenuron”, “and con-ventional” for “and conventional”
as §1, with “δ-endotoxin CryIa(c)” for “δ-endotoxin CryIIIA”, “of fenoxycarb” for “of profenofos”, “comprising fenoxycarb” for “comprising lufenuron”
(§2) Young transgenic cotton plants which express the δ-endotoxin CryIa(c) are sprayed with an aqueous emulsion spray mixture comprising 100, 50, 10, 5, 1 ppm of pymetrozine respectively. After the spray coating has dried on, the cotton plants are populated with 10 adult Anthonomus grandis, 10 Spodoptera littora larvae or 10 Heliothis virescens larvae respectively and introduced into a plastic container. Evaluation takes place 3 to 10 days later. […]

[2] = tested on: Heliothis spp.; assay: Plot test on maize cv. KnockOut vs conventional maize, action against Heliothis spp.; details: natural infestation; for control on the plants of plot (a) (% action): plot (a) maize cv. KnockOut, spray 200, 100, 50, 10, 5, 1 ppm, evaluation 6 days later; for control level, plot (b): plot (b) conventional maize, spray 200, 100, 50, 10, 5, 1 ppm plus same ppm of the endotoxin expressed by KnockOut, 6 days
Method: (§3) A plot (a) planted with maize cv. KnockOut® and an adjacent plot (b) of the same size which is planted with conventional maize, both showing natural infestation with Ostrinia nubilalis, Spodoptera sp or Heliothis, are sprayed with an aqueous emulsion spray mixture comprising 200, 100, 50, 10, 5, 1 ppm of fenoxycarb . Immediately afterwards, plot (b) is treated with an emulsion spray mixture comprising 200, 100, 50, 10, 5, 1 ppm of the endotoxin expressed by KnockOut®. Evaluation takes place 6 days later. The percentage reduction in population (% action) is determined by comparing the number of dead pests on the plants of plot (a) with that on the plants of plot (b).
as §3, with “pymetrozine.” for “fenoxycarb .”
(§4) A plot (a) planted with maize cv. KnockOut® and an adjacent plot (b) of the same size which is planted with conventional maize, both showing natural infestation with Ostrinia nubilalis. Spodoptera sp or Heliothis, are sprayed with an aqueous emulsion spray mixture comprising 200, 100, 50, 10, 5, 1ppm of lufenuron. Immediately afterwards, plot (b) is treated with an emulsion spray mixture comprising 200, 100, 50, 10, 5, 1 ppm of the endotoxin expressed by KnockOut®. Evaluation takes place 6 days later. The percentage reduction in population (% action) is determined by comparing the number of dead pests on the plants of plot (a) with that on the plants of plot (b).

[3] = tested on: Ostrinia nubilalis; assay: Plot test on maize cv. KnockOut vs conventional maize, action against Ostrinia nubilalis; details: natural infestation; for control on the plants of plot (a) (% action): plot (a) maize cv. KnockOut, spray 200, 100, 50, 10, 5, 1 ppm, evaluation 6 days later; for control level, plot (b): plot (b) conventional maize, spray 200, 100, 50, 10, 5, 1 ppm plus same ppm of the endotoxin expressed by KnockOut, 6 days
Method: as §3
as §3, with “pymetrozine.” for “fenoxycarb .”
as §4

[4] = tested on: Spodoptera littoralis; assay: Spray test on young transgenic cotton plants, action against Spodoptera littoralis larvae; details: for control of the tested insects in the non-transgenic plant (% action): non-transgenic cotton, spray mixture of active ingredient and conventional CryIIIA-toxin, each 100, 50, 10, 5, 1 ppm, 3 to 10 days; for control of the tested insects in the transgenic plant (% action): spray 100, 50, 10, 5, 1 ppm, evaluation 3 to 10 days, compared with treated non-transgenic cotton
Description: as §1
as §1, with “pymetrozine” for “lufenuron”
as §1, with “express tho” for “express the”, “δ-endotoxin CryIa (c)” for “δ-endotoxin CryIIIA”, “of fenoxycarb” for “of profenofos”, “comprising fenoxycarb” for “comprising lufenuron”, “and con-ventional” for “and conventional”
as §1, with “δ-endotoxin CryIa(c)” for “δ-endotoxin CryIIIA”, “of fenoxycarb” for “of profenofos”, “comprising fenoxycarb” for “comprising lufenuron”
as §2

[5] = tested on: Heliothis virescens; assay: Spray test on young transgenic cotton plants, action against Heliothis virescens larvae; details: for control of the tested insects in the non-transgenic plant (% action): non-transgenic cotton, spray mixture of active ingredient and conventional CryIIIA-toxin, each 100, 50, 10, 5, 1 ppm, 3 to 10 days; for control of the tested insects in the transgenic plant (% action): spray 100, 50, 10, 5, 1 ppm, evaluation 3 to 10 days, compared with treated non-transgenic cotton
Description: as §1
as §1, with “pymetrozine” for “lufenuron”
as §1, with “express tho” for “express the”, “δ-endotoxin CryIa (c)” for “δ-endotoxin CryIIIA”, “of fenoxycarb” for “of profenofos”, “comprising fenoxycarb” for “comprising lufenuron”, “and con-ventional” for “and conventional”
as §1, with “δ-endotoxin CryIa(c)” for “δ-endotoxin CryIIIA”, “of fenoxycarb” for “of profenofos”, “comprising fenoxycarb” for “comprising lufenuron”
as §2

[6] = tested on: Spodoptera spp.; assay: Plot test on maize cv. KnockOut vs conventional maize, action against Spodoptera spp.; details: natural infestation; for control on the plants of plot (a) (% action): plot (a) maize cv. KnockOut, spray 200, 100, 50, 10, 5, 1 ppm, evaluation 6 days later; for control level, plot (b): plot (b) conventional maize, spray 200, 100, 50, 10, 5, 1 ppm plus same ppm of the endotoxin expressed by KnockOut, 6 days
Method: as §3
as §3, with “pymetrozine.” for “fenoxycarb .”
as §4

[7] = tested on: Frankliniella occidentalis; assay: Transgenic vs conventional cotton seedlings, action against Frankliniella occidentalis; details: 20° C.; for control on the plants of plot (a) (% action): spray 400 ppm, evaluated after 3 and 6 days; for control level, plot (b): plot (b) conventional cotton seedlings, 3 and 6 days
Method: Cotton seedlings expressing the δ-endotoxin Crylila on a plot (a) and conventional cotton seedlings on a plot (b) are infected with Frankliniella occidentalis and subsequently sprayed with a spray mixture comprising 400 ppm lufenuron. Immediately afterwards, plot (b) is treated with an emulsion spray mixture comprising 400 ppm of the S-endotoxin CrylIla. The seedlings of plot (a) and (b) are then incubated at 20° C. The test is evaluated after 3 and 6 days.
(§5) The percentage reduction in population (% action) is determined by comparing the number of dead pests on the plants of plot (a) with that on the plants of plot (b).
Cotton seedlings expressing the δ-endotoxin CryIa(c) on a plot (a) and conventional cotton seedlings on a plot (b) are infected with Frankliniella occidentalis and subsequently sprayed with a spray mixture comprising 400 ppm lufenuron. Immediately afterwards, plot (b) is treated with an emulsion spray mixture comprising 400 ppm of the δ-endotoxin CryIa(c). The seedlings of plot (a) and (b) are then incubated at 20° C. The test is evaluated after 3 and 6 days.

[8] = tested on: Aphis gossypii; assay: Transgenic vs conventional cotton seedlings, action against Aphis gossypii; details: 20° C.; for control on the plants of plot (a) (% action): spray 400 ppm, evaluated after 3 and 6 days; for control level, plot (b): plot (b) conventional cotton seedlings, 3 and 6 days
Method: Cotton seedlings on a plot (a) expressing the δ-endotoxin CryllIa on a plot (a) and conven-tional cotton seedlings on a plot (b) are infected with Aphis gossypi and subsequently sprayed with a spray mixture comprising 400 ppm pymetrozine. immediately afterwards, plot (b) is treated with an emulsion spray mixture comprising 400 ppm of the δ-endotoxin Crylila. The seedlings of plot (a) and (b) are then incubated at 20° C. The test is evaluated after 3 and 6 days.
as §5
Cotton seedlings expressing the δ-endotoxin CryIA(c) on a plot (a) and conventional cotton seedlings on a plot (b) are infected with Aphis gossypii and subsequently sprayed with a spray mixture comprising 400 ppm pymetrozine. Immediately afterwards, plot (b) is treated with an emulsion spray mixture comprising 400 ppm of the δ-endotoxin […]. The seedlings of plot (a) and (b) are then incubated at 20° C. The test is evaluated after 3 and 6 days.

[9] = transgenic cotton expressing δ-endotoxin CryIa(c)
[10] = plot (a) cotton seedlings expressing δ-endotoxin CryIa(c)
[11] = transgenic cotton expressing δ-endotoxin CryIIIA

Row | Compound | control of the tested insects in the non-transgenic plant (% action) [1] | control of the tested insects in the transgenic plant (% action) [1, 9] | control on the plants of plot (a) (% action) [2] | control level, plot (b) [2] [%] | control on the plants of plot (a) (% action) [3] | control level, plot (b) [3] [%] | control of the tested insects in the non-transgenic plant (% action) [4] | control of the tested insects in the transgenic plant (% action) [4, 9] | control of the tested insects in the non-transgenic plant (% action) [5] | control of the tested insects in the transgenic plant (% action) [5, 9] | control on the plants of plot (a) (% action) [6] | control level, plot (b) [6] [%] | other results
1 | CCOC(=O)NCCOc1ccc(Oc2ccccc2)cc1 [fenoxycarb, Ethyl 2-(4-Phenoxyphenoxy)ethylcarbamat] | insufficient | superior | Improved control | ≤ 60 | Improved control | ≤ 60 | insufficient | superior | insufficient | superior | Improved control | ≤ 60 | –
2 | O=C(NC(=O)c1c(F)cccc1F)Nc1cc(Cl)c(OC(F)(F)C(F)C(F)(F)F)cc1Cl (centres unmarked) [lufenuron] | insufficient | superior | Improved control | ≤ 60 | Improved control | ≤ 60 | insufficient | superior | insufficient | superior | Improved control | ≤ 60 | control on the plants of plot (a) (% action) [7, 10]: Improved control; control on the plants of plot (a) (% action) ([7]; plot (a) cotton seedlings expressing δ-endotoxin Crylila): Improved control; control level, plot (b) ([7]; spray 400 ppm plus 400 ppm of endotoxin CrylIla): ≤ 60%; control level, plot (b) ([7]; spray 400 ppm plus 400 ppm of δ-endotoxin CryIa(c)): ≤ 60%
3 | CCCSP(=O)(OCC)Oc1ccc(Br)cc1Cl (centres unmarked) [profenofos, O-4-Brom-2-chlorphenyl O-Ethyl S-Propyl Phosphorothioat] | – | – | – | – | – | – | – | – | – | – | – | – | control of the tested insects in the transgenic plant (% action) [1, 11]: superior; control of the tested insects in the transgenic plant (% action) [4, 11]: superior; control of the tested insects in the transgenic plant (% action) [5, 11]: superior
4 | CC1=NNC(=O)N(N=Cc2cccnc2)C1 [pymetrozine, 2,3,4,5-Tetrahydro-3-oxo-4-[(pyridin-3-yl)-methylenamino]-6-methyl-1,2,4-triazin] | insufficient | superior | Improved control | ≤ 60 | Improved control | ≤ 60 | insufficient | superior | insufficient | superior | Improved control | ≤ 60 | control on the plants of plot (a) (% action) [8, 10]: Improved control; control on the plants of plot (a) (% action) ([8]; plot (a) cotton seedlings expressing δ-endotoxin CryllIa): Improved control; control level, plot (b) ([8]; spray 400 ppm plus 400 ppm of δ-endotoxin Crylila): ≤ 60%; control level, plot (b) ([8]; spray 400 ppm plus 400 ppm of δ-endotoxin Crylla): ≤ 60%
